This is an account of results in patent US20240002368A1 (QILU REGOR THERAPEUTICS INC., priority 2020, published 2024).

Assay [1] concerns STING pathway. The assay is described as follows: IFN β reporter assay (HTRF, 2′3′-cGAMP-stimulated THP1 cells). It is filed as cell-based, human. The settings on record: Homo sapiens. How it is done: STING pathway deactivation by the compounds described herein was measured using THP1 cells. The THP1 Cells (obtained from ATCC, Cat #TIB-202) were maintained in RPMI-1640 (Gibco, Cat #22400105), 10% FBS, 1% Pen-Strep, 0.05 mM 2-mercaptoethanol. For STING activation, 2′3′-cGAMP (MW 718.38, obtained from Invivogen) was used and prepared in serum-free RPMI-1640 media. Growth media: RPMI-1640 (HEPES, glutamine), 10% FBS, 1% Pen-Strep, 0.05 mM 2-mercaptoethanol. Assay media: RPMI-1640 (HEPES, glutamine), 0.5% FBS. 2′3′-cGAMP: Dissolve 2′3′-cGAMP to 10 mM stock in H2O.
The cells were prepared and seeded at 100K, 90 μL/well with assay media in cell culture plate (Greiner 655180). The compounds were added in 96-well tissue culture plates by Tecan D300e for a final concentration of 0.00137-3 μM.
Lipo2000/3000 and 2′3′-cGAMP stock solutions were diluted respectively in serum-free RPMI-1640 media. The diluted 2′3′-cGAMP and Lipo (V/V=1:1) were mixed and stood for 15 min at room temperature. 10 μL 2,3-cGAMP/Lipofectamine (10×) was transferred to the 96-well assay plate with a final 2′3′-cGAMP concentration of 5 μM. The cell plates were centrifuged at 1000 rpm for 5 min after incubating at 37° C., 5% CO2 overnight.
All reagents (human IFN beta kit, Cisbio 62HIFNBPEG) were warmed to room temperature for at least 30 min before the assay. The instructions of the kit were followed to prepare the detection media. 14 μL of cell supernatants was transferred into their dedicated wells in 384-well plate. Then 2 μL of the activation reagent solution and 4 μL of the mixed antibody solution were added to all wells. The plate was sealed and incubated for 3 h at room temperature.
The HTRF signal was read in Envision (PerkinElmer). IFN β reporter activity was then measured. The calculated ratio is the signal at 665 nm/signal at 615 nm. IC50 values are calculated by using standard methods known in the art.
(In a reporter assay the amount or activity of a reporter protein is the signal.)

The test system of assay [2] is Trex1−/− mice. The note with it: given to Trex1−/− mice; cited from earlier work.
Setting [3] is: THP-1, read-out: IFN β reporter activity IC50.
[4] abbreviates: THP-1, THP1 cells, 5 μM 2′3′-cGAMP, IFN β secretion inhibition, class symbols, read-out: IFN β reporter activity IC50.

SMILES strings stand for the structures. pIC50: −log10 of the molar value. Like-named read-outs stand apart in the source and are kept apart here. A value given as a limit tells only on which side of the number the result lay.

A word on the pIC50: it is −log10 of the IC50, conventionally taken in molar units. `CN1CC=C(c2cc3c(cc2F)c(C(=O)Nc2c[nH]c4ccc(F)cc24)cn3C)CC1` [Example 115, 5-fluoro-N-(5-fluoro-1H-indol-3-yl)-1-methyl-6-(1-methyl-3,6-dihydro-2H-pyridin-4-yl)indole-3-carboxamide]: the pIC50 in assay [1] (setting [3]) is less than 6.00. Take `CN1CCC(c2cc3c(cc2F)c(C(=O)Nc2c[nH]c4ccc(F)cc24)cn3C)CC1` [Example 116, 5-fluoro-N-(5-fluoro-1H-indol-3-yl)-1-methyl-6-(1-methyl-4-piperidyl)indole-3-carboxamide]: the pIC50 in assay [1] (setting [4]) was less than 6.00. `CN1CC=C(c2ccc3c(C(=O)Nc4c[nH]c5ccc(F)cc45)cn(C)c3c2)CC1` [Example 117]: the pIC50 in assay [1] (setting [3]) was less than 6.00. Turning to `CN1CCC(c2ccc3c(C(=O)Nc4c[nH]c5ccc(F)cc45)cn(C)c3c2)CC1` [Example 118], the pIC50 in assay [1] (setting [4]) is less than 6.00. On to `CN1CC=C(c2cc3c(cc2Cl)c(C(=O)Nc2c[nH]c4ccc(C#N)cc24)cn3C)CC1` [Example 119, 5-chloro-N-(5-cyano-1H-indol-3-yl)-1-methyl-6-(1-methyl-3,6-dihydro-2H-pyridin-4-yl)indole-3-carboxamide], for which the pIC50 in assay [1] (setting [3]) was less than 6.00.

For `CN1CCC(c2cc3c(cc2Cl)c(C(=O)Nc2c[nH]c4ccc(C#N)cc24)cn3C)CC1` [Example 120, 5-chloro-N-(5-cyano-1H-indol-3-yl)-1-methyl-6-(1-methyl-4-piperidyl)indole-3-carboxamide], the pIC50 in assay [1] (setting [4]) is less than 6.00. With `CCN(CCO)CCCC(C)Nc1ccnc2cc(Cl)ccc12` (stereo not shown) [hydrochloroquine], the “development of experimental autoimmune myocarditis” value in assay [2] is recorded as “prevents”.
